Measured values reported in US9012431B2, “Boron-containing small molecules as anti-inflammatory agents” (Anacor Pharmaceuticals, Inc., priority 2008, dated 2015).
Structures can show the parent of a compound that is named as a salt.

How the values were obtained:
[1] = test system: IL-5; experiment: Cytokine assay, IL-5 release from PBMC; assay type: cell-based; details: human PBMC, 20 ug/mL PHA; for IC50: supernatant at 48 hours
Description: (§1) The ability of the compounds described herein to inhibit pro-inflammatory cytokines or phsophodiesterases were tested.
(§2) Frozen human peripheral blood mononucleocytes (PBMC) were thawed and centrifuged. Cryopreservation media was aspirated off of the cell pellet, and the cells were resuspended in fresh culture media (CM) comprising RPMI 1640 and 10% FBS in 96 well plates. Test article was dissolved in DMSO to form a 10 mM sample (DMSO, 100%). The 10 mM samples were diluted to 100 μM in CM (DMSO, 1%), then further diluted to 10, 1, 0.1, 0.01 μM in 200 μL of CM (n=3). […] IL-23 was assayed using a commercial ELISA kit (R&D Systems).

[2] = test system: TNF-α; experiment: Cytokine assay, TNF-α release from PBMC; assay type: cell-based; details: 1 μg/mL LPS; for IC50: supernatant at 24 hours
Description: as §1, §2

[3] = test system: T1, PDE4 partially purified from human U-937 myeloid leukemia cells; experiment: PDE4 Assay (enzyme from U-937 cells, [3H]cAMP); assay type: biochemical; details: PDE4 from U-937 cells, Tris buffer pH 7.5, 20 minutes at 25° C.
T1 construct: PDE4 partially purified from human U-937 myeloid leukemia cells was used
Description: Test article and/or vehicle was incubated with 0.2 mg enzyme and 1 mM cAMP containing 0.01 mM [3H]cAMP in Tris buffer pH 7.5 for 20 minutes at 25° C. The reaction was terminated by boiling for 2 minutes and the resulting AMP is converted to adenosine by addition of 10 mg/ml snake venom nucleotidase and further incubation at 37° C. for 10 minutes. Unhydrolyzed cAMP is bound to AG1-X2 resin, and remaining [3H]Adenosine in the aqueous phase is quantitated by scintillation counting.

[4] = test system: IL-2; experiment: Cytokine assay, IL-2 release from PBMC; assay type: cell-based; details: human PBMC, 20 ug/mL PHA; for IC50: supernatant at 24 hours
Description: as §1, §2

[5] = test system: IFN-γ; experiment: Cytokine assay, IFN-γ release from PBMC; assay type: cell-based; details: human PBMC, 20 ug/mL PHA, supernatant at 24 hours
Description: as §1, §2

[6] = test system: IL-10; experiment: Cytokine assay, IL-10 release from PBMC; assay type: cell-based; details: human PBMC, 20 ug/mL PHA; for IC50: supernatant at 48 hours
Description: as §1, §2

| SMILES | IC50 [1] | IC50 ([2]; Homo sapiens, PBMC, 24 h) | IC50 [3] | IC50 [4] | IC50 [5] | IC50 [6] | IC50 ([2]; human PBMC, hydrochloride) | inhibition at 10 µM ([1]; 48 hours, 10 μM) | inhibition at 10 µM ([2]; human PBMC, 24 hours, 10 μM) | inhibition at 10 µM ([4]; 24 hours, 10 μM) | inhibition at 10 µM ([6]; 48 hours, 10 μM) |
| --- | --- | --- | --- | --- | --- | --- | --- | --- | --- | --- | --- |
| Cc1cc(C#N)ccc1Oc1ccc2c(c1)COB2O [D85, 3-methyl-4-(1-hydroxy-1,3-dihydrobenzo[c][1,2]oxaborol-5-yloxy)benzonitrile] | < 1000 nM | < 1000 nM | < 1000 nM | < 1000 nM | < 1000 nM | 1000 to 4000 nM | – | – | – | – | – |
| CCOc1cc(Oc2ccc3c(c2)COB3O)ncc1C#N [D120, 4-Ethoxy-6-(1-hydroxy-1,3-dihydro-benzo[c][1,2]oxaborol-5-yloxy)-nicotinonitrile] | < 1000 nM | < 1000 nM | < 1000 nM | < 1000 nM | < 1000 nM | < 1000 nM | – | – | – | – | – |
| N#Cc1ccc(Oc2ccc3c(c2)COB3O)c(CN)c1 [D26, 5-(2-Aminomethyl-4-cyanophenoxy)-1,3-dihydro-1-hydroxy-2,1-benzoxaborole hydrochloride] | 4000 to 10000 nM | – | 1000 to 4000 nM | 1000 to 4000 nM | 4000 to 10000 nM | > 10000 nM | > 10000 nM | – | – | – | – |
| CCOC(=O)c1cc(Cl)c(Oc2ccc3c(c2)COB3O)cc1F [D58, 5-(2-Chloro-5-fluoro-4-ethoxycarbonylphenoxy)-1-hydroxy-2,1-benzoxaborole] | < 1000 nM | 1000 to 4000 nM | < 1000 nM | < 1000 nM | < 1000 nM | > 10000 nM | – | – | – | – | – |
| CC(=O)Oc1cc(Oc2ccc3c(c2)COB3O)ccc1C#N [D11, 5-(4-Cyano-3-acetoxyphenoxy)-1,3-dihydro-1-hydroxy-2,1-benzoxaborole] | 4000 to 10000 nM | < 1000 nM | < 1000 nM | 1000 to 4000 nM | 1000 to 4000 nM | 1000 to 4000 nM | – | – | – | – | – |
| CCN(CC)C(=O)c1ccc(Oc2ccc3c(c2)COB3O)nc1 [D62, N,N-diethyl-6-(1-hydroxy-1,3-dihydrobenzo[c][1,2]-5-yloxy) nicotinamide] | 1000 to 4000 nM | < 1000 nM | 1000 to 4000 nM | < 1000 nM | < 1000 nM | 1000 to 4000 nM | – | – | – | – | – |
| N#Cc1ccc(Oc2ccc3c(c2)COB3O)nc1N [D130, 2-amino-6-(1-hydroxy-1,3-dihydro-benzo[c][1,2]oxaborol-5-yloxy)-nicotinonitrile] | < 1000 nM | < 1000 nM | < 1000 nM | < 1000 nM | < 1000 nM | < 1000 nM | – | – | – | – | – |
| CS(=O)(=O)c1ccc(Oc2ccc3c(c2)COB3O)cc1 [D103, 5-(4-(methylsulfonyl)phenoxy)benzo[c][1,2]oxaborol-1 (3H)-ol] | < 1000 nM | 1000 to 4000 nM | 1000 to 4000 nM | < 1000 nM | < 1000 nM | 1000 to 4000 nM | – | – | – | – | – |
| O=C(NCc1ccccc1)c1ccc(Oc2ccc3c(c2)COB3O)cc1 [D76, N-Benzyl-4-(1-hydroxy-1,3-dihydro-benzo[c][1,2]oxaborol-5-yloxy)-benzamide] | 4000 to 10000 nM | 1000 to 4000 nM | < 1000 nM | < 1000 nM | 1000 to 4000 nM | 1000 to 4000 nM | – | – | – | – | – |
| N#Cc1ccc(Oc2ccc3c(c2)COB3O)nc1NCCOCc1ccccc1 [D113, 2-(2-Benzyloxy-ethylamino)-6-(1-hydroxy-1,3-dihydro-benzo[c][1,2]oxaborol-5-yloxy)-nicotinonitrile] | < 1000 nM | < 1000 nM | < 1000 nM | < 1000 nM | < 1000 nM | 4000 to 10000 nM | – | – | – | – | – |
| N#Cc1cnc(Oc2ccc3c(c2)COB3O)cc1OCCOC1CCCCO1 (stereo not shown) [D118, 6-(1-Hydroxy-1,3-dihydro-benzo[c][1,2]oxaborol-5-yloxy)-4-[2-(tetrahydro-pyran-2-yloxy)-ethoxy]-nicotinonitrile] | < 1000 nM | < 1000 nM | < 1000 nM | < 1000 nM | < 1000 nM | 1000 to 4000 nM | – | – | – | – | – |
| CCN(CC)C(=O)COc1cc(C#N)ccc1Oc1ccc2c(c1)COB2O [D28, 2-(5-cyano-2-(1-hydroxy-1,3-dihydrobenzo[c][1,2]oxaborol-5-yloxy)phenoxy)-N,N-diethylacetamide] | < 1000 nM | < 1000 nM | < 1000 nM | < 1000 nM | < 1000 nM | 1000 to 4000 nM | – | – | – | – | – |
| CCOC(=O)c1ccc(Oc2ccc3c(c2)COB3O)cc1Cl [D57, 5-(3-Chloro-4-ethoxycarbonylphenoxy)-1-hydroxy-2,1-benzoxaborole] | < 1000 nM | 4000 to 10000 nM | < 1000 nM | < 1000 nM | 1000 to 4000 nM | > 10000 nM | – | – | – | – | – |
| CC(C)S(=O)(=O)c1ccc(Oc2ccc3c(c2)COB3O)cc1 [D104, 5-(4-(isopropylsulfonyl)phenoxy)benzo[c][1,2]oxaborol-1 (3H)-ol] | 4000 to 10000 nM | 1000 to 4000 nM | < 1000 nM | 1000 to 4000 nM | 1000 to 4000 nM | 4000 to 10000 nM | – | – | – | – | – |
| N#Cc1ccc(Oc2ccc3c(c2)COB3O)nc1OCC(F)(F)F [D125, 6-(1-Hydroxy-1,3-dihydro-benzo[c][1,2]oxaborol-5-yloxy)-2-(2,2,2-trifluoro-ethoxy)-nicotinonitrile] | < 1000 nM | < 1000 nM | < 1000 nM | < 1000 nM | < 1000 nM | < 1000 nM | – | – | – | – | – |
| N#Cc1ccc(COc2ccc3c(c2)COB3O)cc1 [D1, 5-(4-Cyanobenzyloxy)-1,3-dihydro-1-hydroxy-2,1-benzoxaborole] | 1000 to 4000 nM | 4000 to 10000 nM | 1000 to 4000 nM | 1000 to 4000 nM | 1000 to 4000 nM | > 10000 nM | – | – | – | – | – |
| CC(=O)OCCOc1nc(Oc2ccc3c(c2)COB3O)ccc1C#N [D126, 2-[3-cyano-6-(1-hydroxy-1,3-dihydro-benzo[c][1,2]oxaborol-5-yloxy)-pyridin-2-yloxy]-ethyl acetate] | < 1000 nM | < 1000 nM | < 1000 nM | < 1000 nM | < 1000 nM | < 1000 nM | – | – | – | – | – |
| O=C1NC(=O)c2cc(Oc3ccc4c(c3)COB4O)ccc21 [D9, 5-(1,3-Dihydro-1-hydroxy-2,1-benzoxaborol-5-yloxy)isoindoline-1,3-dione] | < 1000 nM | < 1000 nM | < 1000 nM | < 1000 nM | < 1000 nM | < 1000 nM | – | – | – | – | – |
| CCOC(=O)c1cc(F)c(Oc2ccc3c(c2)COB3O)cc1Cl [D53, 5-(5-Chloro-2-fluoro-4-ethoxycarbonylphenoxy)-1-hydroxy-2,1-benzoxaborole] | 1000 to 4000 nM | < 1000 nM | < 1000 nM | < 1000 nM | < 1000 nM | 1000 to 4000 nM | – | – | – | – | – |
| COc1nc(Oc2ccc3c(c2)COB3O)ccc1C(N)=O [D112, 6-(1-Hydroxy-1,3-dihydro-benzo[c][1,2]oxaborol-5-yloxy)-2-methoxy-nicotinamide] | 1000 to 4000 nM | < 1000 nM | < 1000 nM | < 1000 nM | < 1000 nM | < 1000 nM | – | – | – | – | – |
| N#Cc1ccc(Oc2ccc3c(c2)COB3O)nc1OCC(F)F [D127, 2-(2,2-Difluoro-ethoxy)-6-(1-hydroxy-1,3-dihydro-benzo[c][1,2]oxaborol-5-yloxy)-nicotinonitrile] | < 1000 nM | < 1000 nM | < 1000 nM | < 1000 nM | < 1000 nM | < 1000 nM | – | – | – | – | – |
| COC(=O)c1ccc(Oc2ccc3c(c2)COB3O)cc1 [D71, 4-(1-Hydroxy-1,3-dihydro-benzo[c][1,2]oxaborol-5-yloxy)-benzoic acid methyl ester] | 4000 to 10000 nM | 1000 to 4000 nM | < 1000 nM | 1000 to 4000 nM | 1000 to 4000 nM | > 10000 nM | – | – | – | – | – |
| COC(=O)c1cc(F)c(Oc2ccc3c(c2)COB3O)c(F)c1 [D52, 5-(2,6-Difluoro-4-methoxycarbonylphenoxy)-1-hydroxy-2,1-benzoxaborole] | > 10000 nM | > 10000 nM | 1000 to 4000 nM | 4000 to 10000 nM | 4000 to 10000 nM | > 10000 nM | – | – | – | – | – |
| N#Cc1ccc(NCCO)nc1Oc1ccc2c(c1)COB2O [D106, 2-(1-Hydroxy-1,3-dihydro-benzo[c][1,2]oxaborol-5-yloxy)-6-(2-hydroxy-ethylamino)-nicotinonitrile] | < 1000 nM | < 1000 nM | < 1000 nM | < 1000 nM | < 1000 nM | 4000 to 10000 nM | – | – | – | – | – |
| NCc1ccc(Oc2ccc3c(c2)COB3O)cc1 [D59, (4-(1-Hydroxy-1,3-dihydrobenzo[c][1,2]oxaborol-5-yloxy)phenyl) methanaminium chloride] | – | – | > 10000 nM | – | – | – | – | 30 to 60% | 30 to 60% | 60 to 90% | < 30% |
| N#Cc1ccc(Oc2ccc3c(c2)COB3O)nc1NCCO [D132, 6-(1-hydroxy-1,3-dihydro-benzo[c][1,2]oxaborol-5-yloxy)-2-(2-hydroxy-ethylamino)-nicotinonitrile] | < 1000 nM | < 1000 nM | – | < 1000 nM | < 1000 nM | < 1000 nM | – | – | – | – | – |
